How the values were obtained:
[1] = test system: ABA and catabolites in Arabidopsis thaliana Col-0 plants; assay: Total ABA metabolite levels in mannitol stressed plants treated with SLCCD inhibitors; format: in vivo; conditions: for effect on ABA and catabolite pools under osmotic stress, compared with 13 (in words): whole time course
Protocol: For each condition to be tested, three hundred wild-type Arabidopsis thaliana Col-0 seeds (LEHLE) were sterilized, vernalized and sewn onto 200 mL of Sunshine Mix #3 (Sun Gro) potting material in an 8×8×4 cm pot. Plants were watered continuously with 25 g/100 mL of 20-20-20 (PlantProd™) fertilizer and grown at 22° C. with a 16 hour photoperiod for 22 days. Plants were pre-treated with 50 mL/pot of Buffer A (10 mM HEPES pH 6.5) (Sigma)+/−10 or 33 μM test compound for 2 hours. Plants were then soaked with 50 mL/pot of Buffer A containing 0.4 M mannitol (Sigma)+/−10 or 33 μM test compound. Non-treated/non-stressed control plants were simply soaked in Buffer A at the designated time points. […] Half of the tissue samples were lyophilized for metabolite profiling and the other half taken for quantitative reverse-transcription polymerase chain reaction (qRT-PCR) analysis.
Freeze-dried tissue was homogenized using a multi-tube ball mill (Mini-BeadBeater-96™, Biospec Products Inc., Bartlesville, Okla., USA) and 50 mg of each sample was weighed out into individual Falcon tubes. To each sample, 100 μL of a cocktail of internal standards comprised of (−)-5,8′,8′,8′-d4-ABA, (−)-7′,7′,7′-d3-PA, (−)-5,8′,8′,8′-d4-7′OH ABA, (−)-7′,7′,7′-d3-DPA and (+)-4,5,8′,8′,8′-d5-ABAGE, each at a concentration of 0.2 ng/μL and dissolved in a mixture of water:acetonitrile (1:1, v/v) with 0.5% glacial acetic acid, was added. Further, 3 mL of isopropanol:water:glacial acetic acid (80:19:1, v/v/v) extraction solvent was added, and samples were placed in the fridge (4° C., in the dark) on an orbital shaker at about 350 rpm. After 18-24 hours, the samples were centrifuged at 4.4 krpm for 10 min, the supernatant was transferred to a disposable culture tube, and a second portion of 500 μL extraction solvent mixture was added to wash the pellet. After vortexing and centrifuging again at 4.4 krpm for 10 min, each wash was combined with its appropriate supernatant. The organic extract was dried under reduced pressure, then re-dissolved in 100 μL methanol:glacial acetic acid (99:1, v/v) followed by 900 μL of aqueous 1% glacial acetic acid. This mixture was extracted with 2 mL hexane, and then the aqueous layer was dried down under reduced pressure. The sample was further reconstituted in 2 mL aqueous 1% glacial acetic acid and loaded onto an Oasis MCX SPE cartridge (3 cc, Waters Corporation, Mississauga, Ontario, Canada). After a wash with 3 mL aqueous 1% glacial acetic acid, samples were eluted with 1 mL methanol:glacial acetic acid (99:1, v/v) and then dried down under reduced pressure. The extract was re-dissolved in 100 μL methanol:glacial acetic acid (99:1, v/v) followed by 900 μL of aqueous 1% glacial acetic acid. This mixture was further cleaned on an Oasis HLB SPE cartridge (1 cc, Waters Corporation, Mississauga, Ontario, Canada). After a wash with 1 mL aqueous 1% glacial acetic acid, the fraction containing ABA and ABA metabolites was eluted with 1 mL acetonitrile:water:glacial acetic acid (30:69:1, v/v/v) and then was evaporated to dryness. The final residue was dissolved in 200 μL of acetonitrile:water (15:85, v/v) containing 0.1% glacial acetic acid and 100 pg/μL (±)-3′,5′,5′,7′,7′,7′-d6-ABA as a recovery standard. Finally, the sample was subjected to LC-ES-MS/MS analysis and quantification, as described in Owen and Abrams, 2008.^39

[2] = test system: Arabidopsis thaliana Col-0 seeds; assay: Seed germination assay; format: in vivo
Protocol: Arabidopsis thaliana Col-0 seeds were sterilized by washing them with 10% sodium hypochlorite and 20% sodium dodecyl sulfate (Sigma) for five minutes and then rinsing four times with sterile water. Seeds were moist chilled for 4 days and then plated on germination medium (0.41% MS salts, 1% sucrose, 0.05% MES and 0.1% Gamborg's vitamins, pH 5.7, 0.7% agar) (Sigma) containing either 0.1, 0.33, 1.0 or 3.33 μM of inhibitor or (+)-ABA 1. As a control, seeds were sewn and germinated on media only without inhibitors or (+)-ABA 1. Germination was recorded over seven days and indexes calculated as described previously.^40

Rd29B = assay: qRT-PCR transcript level in mannitol stressed plants: Rd29B; format: in vivo, Arabidopsis thaliana; conditions: 10 and 33 μM, 6 hours post-compound treatment, normalized to UBQ10
Protocol: (§1) For each condition to be tested, three hundred wild-type Arabidopsis thaliana Col-0 seeds (LEHLE) were sterilized, vernalized and sewn onto 200 mL of Sunshine Mix #3 (Sun Gro) potting material in an 8×8×4 cm pot. Plants were watered continuously with 25 g/100 mL of 20-20-20 (PlantProdTM) fertilizer and grown at 22° C. with a 16 hour photoperiod for 22 days. Plants were pre-treated with 50 mL/pot of Buffer A (10 mM HEPES pH 6.5) (Sigma)+/-10 or 33 μM test compound for 2 hours. Plants were then soaked with 50 mL/pot of Buffer A containing 0.4 M mannitol (Sigma)+/-10 or 33 μM test compound. Non-treated/non-stressed control plants were simply soaked in Buffer A at the designated time points. Aerial plant tissue was harvested after 6, 12 and 48 hours from the time of initial inhibitor treatment and flash frozen in liquid nitrogen. Half of the tissue samples were lyophilized for metabolite profiling and the other half taken for quantitative reverse-transcription polymerase chain reaction (qRT-PCR) analysis. […] The resulting mRNA was quantified and checked for quality using a Nano-DropTM ND-1000 Spectrophotometer. QuantiTectTM Reverse Transcription Kit (Qiagen) was used to produce cDNA as directed by the manufacturer from 20 ng of starting mRNA. […] Relative changes in transcript level were normalized using UBQ10 and quantified as previously described.^41

CYP707A1 = assay: qRT-PCR transcript level in mannitol stressed plants: CYP707A1; format: in vivo, Arabidopsis thaliana; conditions: 10 and 33 μM, 6 hours post-compound treatment, normalized to UBQ10
Protocol: as §1

CYP707A3 = assay: qRT-PCR transcript level in mannitol stressed plants: CYP707A3; format: in vivo, Arabidopsis thaliana; conditions: 10 and 33 μM, 6 hours post-compound treatment, normalized to UBQ10
Protocol: as §1

[3] = highest concentration tested (3.33 μM)
[4] = 33 μM inhibitor, mannitol stress

## CCSCC=C(C)C#CC1(O)C(C)CC(=O)CC1(C)C (racemic) [Compound 13, (4S,5R/4R,5S)-(3′Z)-4-(5′-(Ethylthio)-3′-methylpent-3′-en-1′-ynyl)-4-hydroxy-3,3,5-trimethylcyclohexanone]
[1]; 33 μM inhibitor 2 h before and during 0.4 M mannitol stress, 24 hours, mannitol only 15147 pmol/g
  total levels of ABA and catabolites: 8211 pmol/g
[1]; 33 μM inhibitor, mannitol stress, first 6 hours
  levels of ABA and catabolites at first time point (in words): comparable to those of the non-treated/non-stressed control plants
[2]; 1 μM in germination medium
  reduction of seed germination: 26%
[2]; compared with (+)-ABA 1
  less effect on germination than (+)-ABA 1: 60-70%
[2]; [3]
  reduction of seed germination: 38%
[2]
  effect on seed germination at low concentrations (in words): slight promotion effects
Rd29B
  inhibition of mannitol-induced Rd29b transcription: about 90%
CYP707A1
  CYP707A1 mRNA transcript level vs mannitol-stressed control (in words): reductions in the accumulation of mRNA transcript levels
CYP707A3
  CYP707A3 mRNA transcript level vs mannitol-stressed control (in words): reductions in the accumulation of mRNA transcript levels

## C/C(C#C[C@@]12O[C@]1(C)C[C@@H](O)CC2(C)C)=C/CSc1ccccc1 [Compound 17, (1R,3S,6R)-(3′Z)-1,5,5-Trimethyl-6-(3′-methyl-5′-(phenylthio)-pent-3′-en-1′-ynyl)-7-oxa-bicyclo[4.1.0]heptan-3-ol]
[1]; [4]
  effect on ABA and catabolite pools under osmotic stress, compared with 13 (in words): less effective than 13
[2]; 1 μM in germination medium
  reduction of seed germination: 26%
[2]; [3]
  reduction of seed germination: 51%
[2]
  effect on seed germination at low concentrations (in words): slight promotion effects

## C/C(C#C[C@@]12O[C@]1(C)C[C@@H](O)CC2(C)C)=C/CNc1ccccc1 [Compound 18, (1R,3S,6R)-(3′Z)-1,5,5-Trimethyl-6-(3′-methyl-5′-(phenylamino)-pent-3′-en-1-ynyl)-7-oxabicyclo[4.1.0]heptan-3-ol]
[1]; [4]
  effect on ABA and catabolite pools under osmotic stress, compared with 13 (in words): less effective than 13
[2]; 1 μM in germination medium
  reduction of seed germination: 50%
[2]; [3]
  reduction of seed germination: 71%
